Measured values as given in US20020065317A1, “Calcium salt compositions having improved solubility and method for preparing them” (priority 1998, published 2002).

Test: Dissolution time: time required fully to dissolve 1 gram of powder into 100 ml of water
Format: physicochemical
Conditions: 1 gram into 100 ml of water at 20° C.; only with vigorous stirring
Protocol: The dissolution rate of the resulting powder is defined by the dissolution time, viz. the time required fully to dissolve 1 gram thereof into 100 ml of water at 20° C. The dissolution time of the calcium salts compositions of the invention is not more than 60 seconds and preferably not more than 10 seconds. The dissolution time of the powder obtained according to Example 1 is found to be 3.036 sec, while the dissolution time of the untreated calcium gluconate granules is 1.3 minutes, and this only when vigorous stirring is carried out to hasten as much as possible the dissolution. Therefore the powder of Example 1 is an instantly soluble powder, as this expression is to be construed in this, specification.

Question: For calcium gluconate, which dissolution time is on record?
Answer: 1.3 min
